Experimental data taken from patent US5807852A, “Tricyclic amide and urea compounds useful for inhibition of G-protein function and for treatment of proliferative diseases” (Schering Corporation, priority 1995, dated 1998).

target: T1, farnesyl protein transferase (FPT) (Rattus norvegicus, UniProt Q02293+Q04631); test: Inhibition of farnesyl protein transferase (FPT), in vitro enzyme assay, Ras-CVLS farnesylation; assay type: biochemical, rat (partially purified rat brain); details: Table 22
T1 construct: were partially purified from rat brain by ammonium sulfate fractionation; from tissue; host or cells: rat brain
Method: Two forms of val^12 -Ha-Ras protein were prepared as substrates for these enzymes, differing in their carboxy terminal sequence. One form terminated in cysteine-valine-leucine-serine (Ras-CVLS) the other in cystein-valine-leucine-leucine (Ras-CVLL). Ras-CVLS is a substrate for the famesyl protein transferase while Ras-CVLL is a substrate for geranylgeranyl protein transferase I. The cDNAs encoding these proteins were constructed so that the proteins contain an amino-terminal extension of 6 histidine residues. Both proteins were expressed in Escherichia coli and purified using metal chelate affinity chromatography. The radiolabelled isoprenyl pyrophosphate substrates, [^3 H]farnesyl pyrophosphate and [^3 H]geranylgeranyl pyrophosphate, were purchased from DuPont/New England Nuclear.
The reaction was allowed to proceed for 30 minutes at room temperature and then stopped with 0.5 ml of 4% sodium dodecyl sulfate (SDS) followed by 0.5 ml of cold 30% trichloracetic acid (TCA). Samples were allowed to sit on ice for 45 minutes and precipitated Ras protein was then collected on GF/C filter paper mats using a Brandel cell harvester. Filter mats were washed once with 6% TCA, 2% SDS and radioactivity was measured in a Wallac 1204 Betaplate BS liquid scintillation counter. Percent inhibition was calculated relative to the DMSO vehicle control.

| IC50 | SMILES |
| --- | --- |
| 5 µM | CN1CCN(c2cc(CC(=O)N3CCC(C4c5ccc(Cl)cc5CCc5cc(Br)cnc54)CC3)ccn2)CC1 (stereo not drawn) [Example 410-U] |
| 1.17 µM | CSc1cc(CC(=O)N2CCC(C3c4ccc(Cl)cc4CCc4cc(Br)cnc43)CC2)ccn1 (stereo not drawn) [Example 410-V] |

Second part, the compound before the results:

| SMILES | IC50 |
| --- | --- |
| C[C@H](N)C(=O)N1CCC(CC(=O)N2CCN(C3c4ccc(Cl)cc4CCc4cccnc43)CC2)CC1 (stereo partly drawn) [Example 433] | 2.5 µM |
| CSCC[C@H](N)C(=O)N1CCC(CC(=O)N2CCN(C3c4ccc(Cl)cc4CCc4cccnc43)CC2)CC1 (stereo partly drawn) [Example 433-B] | 1.89 µM |
| O=C(Cc1ccnc(-n2ccnc2)c1)N1CCC(C2c3ccc(Cl)cc3CCc3cc(Br)cnc32)CC1 (stereo not drawn) [Example 410-T] | 1.8 µM |
| CS(=O)(=O)c1cc(CC(=O)N2CCC(C3c4ccc(Cl)cc4CCc4cc(Br)cnc43)CC2)ccn1 (stereo not drawn) [Example 410-W] | 1.16 µM |
